Test results as given in patent publication US7414066B2, “Amide compounds and medications containing the same technical field” (Kowa Company Ltd., priority 1999, dated 2008).

SMILES	melting point
CSc1cc(C)nc(SC)c1NC(=O)CCCCCCCCSc1nc2ccccc2s1 [compound 798, 9-(benzothiazol-2-ylthio)-N-[2,4-bis(methylthio)-6-methyl-3-pyridyl]nonanamide]	126 to 127 °C
CCSc1cc(C)nc(SCC)c1NC(=O)CSc1nc2cccc(S(C)(=O)=O)c2o1 [Compound No. 1317, 2-(7-methansulfonylbenzoxazol-2-ylthio)-N-[2,4-bis(ethylthio)-6-methyl-3-pyridyl]acetamide]	159 to 162 °C
CSc1cc(C)nc(SC)c1NC(=O)CSc1nc2cccc(C(F)(F)F)c2o1 [Compound No. 1247, 2-(7-trifluoromethylbenzoxazol-2-ylthio)-N-[2,4-bis(methylthio)-6-methyl-3-pyridyl]acetamide]	207 to 209 °C
CSc1cc(C)nc(SC)c1NC(=O)CCCSc1nc2ccccc2s1 [compound 793, 4-(benzothiazol-2-ylthio)-N-[2,4-bis(methylthio)-6-methyl-3-pyridyl]butanamide]	131 to 133 °C
CCSc1cc(C)nc(SCC)c1NC(=O)CSc1nc2cccc(C(=O)OC)c2o1 [Compound No. 1427, 2-(7-methoxycarbonylbenzoxazol-2-ylthio)-N-[2,4-bis(ethylthio)-6-methyl-3-pyridyl]acetamide]	168 to 169 °C
Cc1cc(SC(C)C)c(NC(=O)CCCSc2nc3c(C)c(Cl)cc(C(C)C)c3o2)c(SC(C)C)n1 [Compound No. 1299, 4-(5-chloro-7-isopropyl-4-methylbenzoxazol-2-ylthio)-N-[2,4-bis(isopropylthio)-6-methyl-3-pyridyl]butanamide]	141 to 143 °C
CSc1nc(C)ccc1NC(=O)CCCCCCCCSc1nc2ccccc2o1 [compound 458, 9-(benzoxazol-2-ylthio)-N-(6-methyl-2-methylthio-3-pyridyl)nonanamide]	99 to 100 °C
CSc1nc(C)ccc1NC(=O)CCCCCCCCSc1nc2ccccc2s1 [compound 468, 9-(benzothiazol-2-ylthio)-N-(6-methyl-2-methylthio-3-pyridyl)nonanamide]	104 to 105 °C
Cc1cc(SC(C)C)c(NC(=O)CCCCSc2nc3ccccc3[nH]2)c(SC(C)C)n1 [Compound No. 864, 5-(benzimidazol-2-ylthio)-N-[2,4-bis(isopropylthio)-6-methyl-3-pyridyl]pentanamide]	175 to 176 °C
CSc1cc(C)nc(SC)c1NC(=O)CCCCSc1nc2c(C)c(Cl)cc(C(C)C)c2o1 [Compound No. 1260, 5-(5-chloro-7-isopropyl-4-methylbenzoxazol-2-ylthio)-N-[2,4-bis(methylthio)-6-methyl-3-pyridyl]pentanamide]	155 to 156 °C
CSc1cc(C)nc(SC)c1NC(=O)CCCCCCSc1nc2ccccc2[nH]1 [Compound No. 806, 7-(benzimidazol-2-ylthio)-N-[2,4-bis(methylthio)-6-methyl-3-pyridyl]heptanamide]	189 to 192 °C
CCSc1cc(C)nc(SCC)c1NC(=O)CCCCCCCSc1nc2c(C)c(Cl)cc(C(C)C)c2o1 [Compound No. 1283, 8-(5-chloro-7-isopropyl-4-methylbenzoxazol-2-ylthio)-N-[2,4-bis(ethylthio)-6-methyl-3-pyridyl]octanamide]	82 to 84 °C
COC(=O)c1cccc2nc(SCCCCCCCCC(=O)Nc3c(SC)cc(C)nc3SC)oc12 [Compound No. 1240, 9-(7-methoxycarbonylbenzoxazol-2-ylthio)-N-[2,4-bis(methylthio)-6-methyl-3-pyridyl]nonanamide]	126 to 128 °C
CCSc1cc(C)nc(SCC)c1NC(=O)CCCSc1nc2ccccc2s1 [Compound No. 823, 4-(benzothiazol-2-ylthio)-N-[2,4-bis(ethylthio)-6-methyl-3-pyridyl]butanamide]	119 to 120 °C
CSc1cc(C)nc(SC)c1NC(=O)CCCCSc1nc2ccccc2s1 [Compound No. 794, 5-(benzothiazol-2-ylthio)-N-(2,4-bis(methylthio)-6-methyl-3-pyridyl)pentanamide]	121 to 123 °C
Cc1cc(SC(C)C)c(NC(=O)CCCCCCSc2nc3c(C)c(Cl)cc(C(C)C)c3o2)c(SC(C)C)n1 [Compound No. 1302, 7-(5-chloro-7-isopropyl-4-methylbenzoxazol-2-ylthio)-N-[2,4-bis(isopropylthio)-6-methyl-3-pyridyl]heptanamide]	91 to 93 °C
CCSc1cc(C)nc(SCC)c1NC(=O)CCCCCCSc1nc2c(C)c(Cl)cc(C(C)C)c2o1 [Compound No. 1282, 7-(5-chloro-7-isopropyl-4-methylbenzoxazol-2-ylthio)-N-[2,4-bis(ethylthio)-6-methyl-3-pyridyl]heptanamide]	117 to 120 °C
CCSc1cc(C)nc(SCC)c1NC(=O)CCCCCCCSc1nc2ccccc2[nH]1 [Compound No. 837, 8-(benzoimidazol-2-ylthio)-N-[2,4-bis(ethylthio)-6-methyl-3-pyridyl]octanamide]	166 to 168 °C
CSc1nccc(C)c1NC(=O)CCCCCSc1nc2ccccc2o1 [Compound No. 155, 6-(benzoxazol-2-ylthio)-N-(4-methyl-2-methylthio-3-pyridyl)hexanamide]	122 to 124 °C
Cc1cc(SC(C)C)c(NC(=O)CSc2nc3ccccc3[nH]2)c(SC(C)C)n1 [Compound No. 861, 2-(benzimidazol-2-ylthio)-N-[2,4-bis(isopropylthio)-6-methyl-3-pyridyl]acetamide]	223 to 224 °C
Cc1cc(SC(C)C)c(NC(=O)CCCSc2nc3ccccc3o2)c(SC(C)C)n1 [compound 843, 4-(benzoxazol-2-ylthio)-N-[2,4-bis(isopropylthio)-6-methyl-3-pyridyl]butanamide]	128 to 129 °C
CSc1nc(C)ccc1NC(=O)CCCCCSc1nc2ccccc2s1 [compound 465, 6-(benzothiazol-2-ylthio)-N-(6-methyl-2-methylthio-3-pyridyl)hexanamide]	122 to 123 °C
CSc1cc(C)nc(SC)c1NC(=O)CCCCCCSc1nc2ccccc2o1 [Compound No. 786, 7-(benzoxazol-2-ylthio)-N-[2,4-bis(methylthio)-6-methyl-3-pyridyl]heptanamide]	137 to 139 °C
CSc1cc(C)nc(SC)c1NC(=O)CCCCCSc1nc2ncccc2o1 [Compound No. 1237, 6-(oxazolo[4,5-b]pyridin-2-ylthio)-N-[2,4-bis(methylthio)-6-methyl-3-pyridyl]hexanamide]	132 to 133 °C
Cc1cc(SC(C)C)c(NC(=O)CCCCSc2nc3c(C)c(Cl)cc(C(C)C)c3o2)c(SC(C)C)n1 [Compound No. 1300, 5-(5-chloro-7-isopropyl-4-methylbenzoxazol-2-ylthio)-N-[2,4-bis(isopropylthio)-6-methyl-3-pyridyl]pentanamide]	143 to 145 °C
CCSc1cc(C)nc(SCC)c1NC(=O)CCCCCCSc1nc2cccc(C(F)(F)F)c2o1 [Compound No. 1272, 7-(7-trifluoromethylbenzoxazol-2-ylthio)-N-[2,4-bis(ethylthio)-6-methyl-3-pyridyl]heptanamide]	127 to 128 °C
Cc1cc(SC(C)C)c(NC(=O)CSc2nc3ccccc3s2)c(SC(C)C)n1 [Compound No. 851, 2-(benzothiazol-2-ylthio)-N-[2,4-bis(isopropylthio)-6-methyl-3-pyridyl]acetamide]	117 to 118 °C
